Data set [1] is described as follows: Measurement of surface tension with a surface tension meter (Sigma 700, KSV Instruments). The format is physicochemical. As for the experimental part: Compound L9 isolated in Example 1 was dropped on a hydrophobic film, and surface tension variation was observed using a surface tension meter (Densitometer, Sigma 700 Densitometer (KSV Instruments Ltd., Finland)). Water was a control, and a culture medium and the size of compound L9 were compared. The numerical value of the surface tension was shown as (dyne/cm (or mN/m)). When a surfactant that has a hydrophobic moiety and a hydrophilic moiety is added to water, surface tension decreases. […] As the intermolecular interaction increases, the surface tension increases. Surface tensions of Compound L9 and known materials produced by bacteria (Table 2) and yeasts (Table 3) were measured, and the results are shown in Tables 2 and 3 below.

The conditions of data set [2]: reference liquids of Table 1, no amount given; cited from earlier work.

Read-outs that look alike come from different tables or passages of the source.

Flavolipid: in data set [1] (amount of material 300 mg/L), the Surface tension was determined as 26.0 dyne/cm. In data set [1] (amount of material 0.7 mg/L), Trehalose lipid returned a Surface tension of 43.0 dyne/cm. In turn, Iturin showed a Surface tension in data set [1] (amount of material 20 mg/L) of 43.0 dyne/cm. In the case of Sophorolipid, the Surface tension in data set [1] (amount of material 40 mg/L) was found to be 35.0 dyne/cm. For the compound `OCC(O)CO` [Glycerin], the Surface tension in data set [2] is 63 dyne/cm.

As for `CCCCC[C@@H](O)C[C@@H](O)CC(=O)O[C@H](CCCCC)C[C@@H](O)CC(=O)O[C@H](CCCCC)C[C@@H](O)CC(=O)OCC(O)CO` (stereo partly shown) [Compound L9], the Surface tension came out at 31.5 dyne/cm in data set [1] (amount of material 1.5 mg/L) and 31.5 mN/m in data set [1] (at 1.5 mg/litter). The “degree of activity (surface tension)” value in data set [1] (summary statement, no amount given) is given as 31 dyne/cm. Take Rhamnolipid: the Surface tension in data set [1] (amount of material 30 mg/L) stood at 31.4 dyne/cm.

In data set [1] (amount of material 25 mg/L), Trehalos lipid showed a Surface tension of 24.1 dyne/cm.

The record behind these values is patent publication US8642793B1, “Biosurfactant produced by Aureobasidium pullulans” (Gyeongbuk Institute for Marine Bio-industry, priority 2012, dated 2014).
